According to ChEMBL document CHEMBL5727982, “Inhibitors of cyclin-dependent kinase 7 (CDK7)” (2020):

Target: Cyclin-dependent kinase 7/ cyclin H (Homo sapiens, UniProt P50613)
Test: In Vitro Kinase Assay: In vitro kinase assays with immunoprecipitated proteins (or recombinant CAK complexes) were performed as follows. Kinase reactions were performed in 25 μL of final volume of reaction buffer (50 mM Hepes, pH 7.5, 150 mM NaCl, 10 mM MgCl2, 5% glycerol, 25 μM ATP, and 10 μCi of [γ-32P]ATP). Each reaction contained 1 μg of RNAP II. Incubation was at 30° C. for 30-45 min. Reactions were terminated by addition of 5 μL of 5×SDS-PAGE sample buffer and incubated at 95° C. for 5 min. Reactions were analyzed by SDS-PAGE, and the dried gel was exposed to film or PhosphorImager plate.
Format: protein-complex assay

Sequence of Cyclin-dependent kinase 7/ cyclin H (P51946 whole entry): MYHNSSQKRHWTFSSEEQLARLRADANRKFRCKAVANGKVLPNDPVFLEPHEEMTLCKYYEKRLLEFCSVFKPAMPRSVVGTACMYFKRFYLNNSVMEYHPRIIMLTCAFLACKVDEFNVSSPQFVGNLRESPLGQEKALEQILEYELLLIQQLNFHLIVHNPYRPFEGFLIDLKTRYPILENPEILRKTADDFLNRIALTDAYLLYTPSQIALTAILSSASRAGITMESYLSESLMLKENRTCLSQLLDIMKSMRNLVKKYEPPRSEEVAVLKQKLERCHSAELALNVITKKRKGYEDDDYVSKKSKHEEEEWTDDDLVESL
Sequence of Cyclin-dependent kinase 7/ cyclin H (P50613 whole entry): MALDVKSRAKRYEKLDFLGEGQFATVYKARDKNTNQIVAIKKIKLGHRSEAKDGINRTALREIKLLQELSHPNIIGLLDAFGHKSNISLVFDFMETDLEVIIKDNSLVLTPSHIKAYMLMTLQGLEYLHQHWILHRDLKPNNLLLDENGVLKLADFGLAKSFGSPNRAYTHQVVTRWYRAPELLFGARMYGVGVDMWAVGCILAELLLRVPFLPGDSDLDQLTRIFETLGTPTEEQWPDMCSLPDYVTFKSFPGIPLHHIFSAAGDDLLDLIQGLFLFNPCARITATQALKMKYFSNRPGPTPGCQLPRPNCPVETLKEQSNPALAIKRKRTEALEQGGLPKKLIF

In the case of CN(C)C/C=C/C(=O)Nc1ccc(S(=O)(=O)Nc2cccc(Nc3ncc(Cl)c(-c4c[nH]c5ccccc45)n3)c2)cc1, the IC50 is reported as under 100 nM.
